# Laboratory results published in ChEMBL document CHEMBL3421575, “Cyclopropyl-containing positive allosteric modulators of metabotropic glutamate receptor subtype 5” (Bioorg Med Chem Lett, 2015).
# pIC50: −log10 of the molar value.
# Experiments:
# [1] = Cytotoxicity against mouse BV2 cells assessed as cell viability by cytotox nonradioactive assay; assay type: cell-based; settings: bv-2
# mGluR5 = test: Selectivity index, ratio of cytotoxicity for mouse BV2 cells to IC50 for mGluR5 in mouse BV2 cells; assay type: toxicity, cell-based, BV-2; settings: read-out: Selectivity Index
# [2] = molecular target: Metabotropic glutamate receptor 5 (Mus musculus, UniProt Q3UVX5); test: Positive allosteric modulation at mGluR5 in mouse BV2 cells assessed as inhibition of LPS-induced NO production incubated for 1 hr prior to LPS challenge measured after 24 hrs by Griess assay; assay type: cell-based, BV-2
# Metabotropic glutamate receptor 5, sequence (Q3UVX5 whole entry): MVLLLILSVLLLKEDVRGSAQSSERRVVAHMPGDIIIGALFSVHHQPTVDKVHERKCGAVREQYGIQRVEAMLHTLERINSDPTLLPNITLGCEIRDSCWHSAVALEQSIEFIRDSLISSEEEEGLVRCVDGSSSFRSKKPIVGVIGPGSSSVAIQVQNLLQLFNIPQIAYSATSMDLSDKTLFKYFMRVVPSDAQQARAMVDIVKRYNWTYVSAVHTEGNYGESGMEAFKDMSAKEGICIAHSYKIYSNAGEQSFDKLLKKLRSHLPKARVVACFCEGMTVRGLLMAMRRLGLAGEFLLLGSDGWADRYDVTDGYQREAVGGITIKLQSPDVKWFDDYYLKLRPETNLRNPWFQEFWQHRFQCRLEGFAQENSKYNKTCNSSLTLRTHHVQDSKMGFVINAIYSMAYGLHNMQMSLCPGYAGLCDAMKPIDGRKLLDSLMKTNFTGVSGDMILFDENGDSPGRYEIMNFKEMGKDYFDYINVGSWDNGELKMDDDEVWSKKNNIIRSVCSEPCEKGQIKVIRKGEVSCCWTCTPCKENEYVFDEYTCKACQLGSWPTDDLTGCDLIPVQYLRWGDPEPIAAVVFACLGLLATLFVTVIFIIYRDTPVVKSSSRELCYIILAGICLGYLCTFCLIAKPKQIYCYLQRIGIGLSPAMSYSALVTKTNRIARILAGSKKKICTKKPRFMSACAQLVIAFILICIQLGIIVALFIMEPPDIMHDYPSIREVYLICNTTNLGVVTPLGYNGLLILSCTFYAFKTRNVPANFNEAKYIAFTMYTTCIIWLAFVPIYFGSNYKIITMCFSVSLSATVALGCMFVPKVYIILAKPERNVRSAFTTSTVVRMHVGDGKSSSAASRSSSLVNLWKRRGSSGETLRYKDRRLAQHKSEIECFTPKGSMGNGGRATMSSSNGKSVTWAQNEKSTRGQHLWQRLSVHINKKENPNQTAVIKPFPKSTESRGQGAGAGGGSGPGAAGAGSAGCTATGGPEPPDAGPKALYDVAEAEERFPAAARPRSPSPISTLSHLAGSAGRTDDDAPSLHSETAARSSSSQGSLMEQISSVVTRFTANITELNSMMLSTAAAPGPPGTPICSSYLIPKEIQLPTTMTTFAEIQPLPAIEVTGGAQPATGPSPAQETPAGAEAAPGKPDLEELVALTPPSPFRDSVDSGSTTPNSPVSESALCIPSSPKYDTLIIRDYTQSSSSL
SMILES,pIC50 [2],Cytotoxic concentration [1] [µM],selectivity ratio (mGluR5)
Fc1cccc(/C=N/N=C/c2cccc(F)c2)c1,–,500,–
O=C(Nc1ccccc1F)[C@H]1C[C@@H]1c1cccc(F)c1 (racemic),3.68,1000,4.76
O=C(Nc1ccc(F)cc1)[C@H]1C[C@@H]1c1cccc(F)c1 (racemic),3.80,1000,6.25
O=C(Nc1ccccc1Cl)[C@H]1C[C@@H]1c1cccc(F)c1 (racemic),3.74,1000,5.68
O=C(Nc1nc2ccccc2[nH]1)[C@H]1C[C@@H]1c1cccc(F)c1 (racemic),4.68,300,14.6
O=C(Nc1nc2ccccc2[nH]1)[C@H]1C[C@@H]1c1cccc(Cl)c1 (racemic),4.17,400,5.96
O=C(N[C@H]1C[C@@H]1c1cccc(F)c1)c1cccc(F)c1 (racemic),4.52,1000,33
O=C(N[C@H]1C[C@@H]1c1cccc(F)c1)c1cccc(Cl)c1 (relative stereo),3.70,1000,5.03

# Further compounds by rising pIC50 [2], results first:
pIC50 [2],SMILES,Cytotoxic concentration [1] [µM],selectivity ratio (mGluR5)
3.64,COc1cc(Br)ccc1NC(=O)[C@H]1C[C@@H]1c1cccc(Cl)c1 (racemic),1000,4.37
3.70,O=C(N[C@H]1C[C@@H]1c1cccc(F)c1)c1ccc([N+](=O)[O-])cc1 (racemic),200,1.02
3.77,O=C(N[C@H]1C[C@@H]1c1cccc(F)c1)c1ccccn1 (racemic),800,4.6
3.89,O=C(N[C@H]1C[C@@H]1c1cccc(F)c1)c1cccc([N+](=O)[O-])c1 (racemic),400,3.01
4.15,O=C(Nc1ccccc1Cl)[C@H]1C[C@@H]1c1cccc(Cl)c1 (relative stereo),1000,14.1
4.24,O=C(Nc1ccc(F)cc1)[C@H]1C[C@@H]1c1cccc(Cl)c1 (relative stereo),1000,17.4
4.34,COc1cc(Br)ccc1NC(=O)[C@H]1C[C@@H]1c1cccc(F)c1 (racemic),1000,21.8
4.34,O=C(Nc1nc2ccccc2s1)[C@H]1C[C@@H]1c1cccc(F)c1 (racemic),300,6.49
